Experimental data: US20220380378A1 (ESSA Pharma, Inc., priority 2021, published 2022)
Read-outs that look alike come from different tables or passages of the source.

Columns and labels:
androgen receptor (AR) [1] = target: T1, androgen receptor (AR) (Homo sapiens, UniProt P10275, T878A); test: Androgen-induced PSA (6.1 kb)-luciferase reporter assay in LNCaP cells (R1881 1 nM); assay type: cell-based; design: LNCaP cells were transiently transfected with the PSA (6.1 kb)-luciferase reporter for 24 h; endogenous in cells; host or cells: LNCaP; conditions: 24 h, read-out: PSA-Luc IC50 Range
T1 sequence (P10275 1-920 T878A): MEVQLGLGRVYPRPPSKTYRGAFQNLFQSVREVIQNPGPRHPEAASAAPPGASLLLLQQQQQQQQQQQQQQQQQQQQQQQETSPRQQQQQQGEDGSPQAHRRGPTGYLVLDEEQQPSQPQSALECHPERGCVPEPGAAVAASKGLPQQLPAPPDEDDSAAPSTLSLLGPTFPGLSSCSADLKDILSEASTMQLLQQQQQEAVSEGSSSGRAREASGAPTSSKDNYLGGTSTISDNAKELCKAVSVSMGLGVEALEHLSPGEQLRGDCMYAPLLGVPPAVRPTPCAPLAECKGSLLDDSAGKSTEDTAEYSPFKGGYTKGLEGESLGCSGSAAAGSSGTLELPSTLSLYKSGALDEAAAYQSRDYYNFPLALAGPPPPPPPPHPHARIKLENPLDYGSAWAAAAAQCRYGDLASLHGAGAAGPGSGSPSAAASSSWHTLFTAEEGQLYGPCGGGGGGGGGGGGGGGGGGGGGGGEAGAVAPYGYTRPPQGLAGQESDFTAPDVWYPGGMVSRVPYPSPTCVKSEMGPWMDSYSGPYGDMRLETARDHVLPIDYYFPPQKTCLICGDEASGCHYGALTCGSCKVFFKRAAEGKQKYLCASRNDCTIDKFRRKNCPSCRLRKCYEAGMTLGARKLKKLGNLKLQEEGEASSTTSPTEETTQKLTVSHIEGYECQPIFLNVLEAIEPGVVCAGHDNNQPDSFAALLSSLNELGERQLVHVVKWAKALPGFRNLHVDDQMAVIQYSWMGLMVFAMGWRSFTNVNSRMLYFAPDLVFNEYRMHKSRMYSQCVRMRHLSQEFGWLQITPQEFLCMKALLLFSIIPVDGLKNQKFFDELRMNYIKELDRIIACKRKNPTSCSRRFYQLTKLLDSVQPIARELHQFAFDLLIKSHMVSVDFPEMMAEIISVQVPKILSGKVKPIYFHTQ
Procedure: The PSA (6.1 kb)-luciferase reporter contains functional AREs (androgen response elements) to which AR binds in response to androgen to induce luciferase activity. LNCaP cells were transiently transfected with the PSA (6.1 kb)-luciferase reporter for 24 h, and then pretreated with vehicle (DMSO) or indicated concentration of representative compounds for one hour prior to the addition of synthetic androgen, R1881 (1 nM). After 24 h of incubation with R1881, the cells were harvested, and relative luciferase activities were determined (FIG. 1). To determine the IC50, treatments were normalized to vehicle control activity induced by R1881 (Table 2).
Luciferase Assay: Cells were lysed using Passive Lysis Buffer (Promega) and then collected into V-bottom 96-well tissue culture plates. Lysates were centrifuged at 4° C. for 5 minutes at 3000 rpm. To measure luminescence of LNCaP cell lysates the Firefly Luciferase Assay System (Promega) was employed, according to manufacturer's protocol. Relative luminescence units (RLU) in cell lysates were detected for 10 seconds using Promega GloMax-Multi Detection Luminometer (Promega). Values were normalized to protein content. GraphPad Prism graphing software was used to calculate IC50 values.
Statistical analyses were performed using GraphPad Prism (Version 6.01 for Windows; La Jolla, Calif., USA). […]

androgen receptor (AR) [2] = target: T1, androgen receptor (AR); test: as above; assay type: cell-based; design: endogenous in cells; host or cells: LNCaP; conditions: 24 h, read-out: PSA-Luc IC50 Range
Outline: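 LNCaP cells transiently transfected with PSA (6.1 kb)-luciferase for 24 h, pretreated 1 h with compound or DMSO, then stimulated with 1 nM R1881 for 24 h. Firefly luciferase in lysates normalized to protein content; IC50 relative to R1881-induced vehicle activity.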

[3] = Microsomal stability assay, liver microsome half-life (mouse); assay type: in vitro ADME; conditions: pH 7.4; mouse liver microsomes 0.5 mg/mL, 1 μM compound, 37° C.; read-out: Liver microsome T1/2 Mouse
From the text: (§1) Microsomal Stability Assay: Microsomal stability assay is a widely used in vitro model to characterize the metabolic conversion by phase I enzymes, such as cytochrome P450 (CYP) enzymes. Since metabolism is known to be highly variable in different species, microsomal stability assay is commonly run in multiple species. Metabolic stability of testing compound can be evaluated using human, rat, mouse, or other animal liver or intestine microsomes to predict intrinsic clearance.
(§2) The assay was carried out in 96-well microtiter plates at 37° C. Reaction mixtures (25 μL) contained a final concentration of 1 μM test compound, 0.5 mg/mL liver microsomes protein, and 1 mM NADPH and/or 1 mM UDPGA (with alamethicin) in 100 mM potassium phosphate, pH 7.4 buffer with 3 mM MgCl2. The incubation was done with N=1, but duplicate incubation at each time point can be prepared if necessary. At each of the time points (for example, 0, 15, 30, and 60 minutes), 150 μL of quench solution (100% acetonitrile with 0.1% formic acid) with internal standard was transferred to each well. Besides the zero minute controls, mixtures containing the same components except the NADPH can also be prepared as the negative control. Verapamil was included as a positive control to verify assay performance. Plates were sealed, vortexed, and centrifuged at 4° C. for 15 minutes at 4000 rpm. The supernatant is transferred to fresh plates for LC/MS/MS analysis.
(§3) Summarized conditions: [Compound]=1 μM, [LM]=0.5 mg/mL, [NADPH]=1 mM and/or [UDPGA]=1 mM, Buffer=100 mM Potassium Phosphate, pH 7.4 with 3 mM MgCl2, Time=0, 15, 30, and 60 min, and Temperature=37° C.
(§4) All samples were analyzed on LC/MS/MS using an AB Sciex API 4000 instrument, coupled to a Shimadzu LC-20AD LC Pump system. Analytical samples were separated using a Waters Atlantis T3 dC18 reverse phase HPLC column (20 mm×2.1 mm) at a flow rate of 0.5 mL/min. The mobile phase consisted of 0.1% formic acid in water (solvent A) and 0.1% formic acid in 100% acetonitrile (solvent B).
(§5) The extent of metabolism is calculated as the disappearance of the test compound, compared to the 0-min time incubation. Initial rates are calculated for the compound concentration and used to determine half-life (t½). […]

[4] = Microsomal stability assay, liver microsome half-life (monkey); assay type: in vitro ADME; conditions: pH 7.4; monkey liver microsomes 0.5 mg/mL, 1 μM compound, 37° C.; read-out: Liver microsome T1/2 Monkey
From the text: as §1, §2, §3, §4
(§6) The extent of metabolism is calculated as the disappearance of the test compound, compared to the 0-min time incubation. Initial rates are calculated for the compound concentration and used to determine half-life (t½).

[5] = Microsomal stability assay, liver microsome half-life (rat); assay type: in vitro ADME; conditions: pH 7.4; rat liver microsomes 0.5 mg/mL, 1 μM compound, 37° C.; read-out: Liver microsome T1/2 Rat
From the text: as §1, §2, §3, §4, §5

[6] = Microsomal stability assay, liver microsome half-life (human); assay type: in vitro ADME; conditions: pH 7.4; human liver microsomes 0.5 mg/mL, 1 μM compound, 37° C.; read-out: Liver microsome T1/2 Human
Outline: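 Test compound at 1 μM incubated at 37 °C with 0.5 mg/mL liver microsomal protein plus 1 mM NADPH and/or 1 mM UDPGA (with alamethicin) in 100 mM potassium phosphate pH 7.4, 3 mM MgCl2. Sampled at 0, 15, 30, 60 min, acetonitrile quench, LC/MS/MS; t½ from parent depletion relative to 0 min.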

[7] = Microsomal stability assay, liver microsome half-life (dog); assay type: in vitro ADME; conditions: pH 7.4; dog liver microsomes 0.5 mg/mL, 1 μM compound, 37° C.; read-out: Liver microsome T1/2 Dog
From the text: as §1, §2, §3, §4, §6

Row | IC50 (androgen receptor (AR) [1]) | IC50 (androgen receptor (AR) [2]) | half-life at 1 μM [3] | half-life at 1 μM [4] | half-life at 1 μM [5] | half-life at 1 μM [6] | half-life at 1 μM [7] | SMILES
1 | < 500 nM |  |  |  |  |  |  | CS(=O)(=O)Nc1nccc(COc2ccc3c(ncn3-c3cc(Cl)c(OCCCl)c(C#N)c3)c2Cl)n1 [Compound A46]
2 |  | > 2000 nM | > 2 h | > 2 h | > 2 h | > 2 h | 1.32 h | COc1c(Cl)cc(C(C)(C)c2ccc(-c3ccc4nc(NS(C)(=O)=O)cnc4c3)cc2)cc1C#N [Compound A269]
3 |  | 500 to 2000 nM | > 2 h | > 2 h | > 2 h | > 2 h | > 2 h | CS(=O)(=O)Nc1cnc2cc(-c3ccc4c(c3)CCC4c3cc(Cl)c(OCCCl)c(C#N)c3)ccc2n1 (stereo not shown) [Compound A270]
4 |  | < 500 nM | > 2 h | > 2 h | > 2 h | > 2 h | > 2 h | CC(C)(c1ccc(-c2ccc3nc(NS(C)(=O)=O)sc3c2)cc1)c1cc(Cl)c(OCCCl)c(C#N)c1 [Compound A274]
